Measured values taken from article PMC12040169 (PLOS Biology, 2025).

Assay: in vitro
Conditions: human, hela cells, % viability

SMILES | viability at 28.5 h, 10 µM [%] | viability at 28.5 h, 10 µM (bulk resorufin, single well) [%]
O=C(OCc1ccccc1)N1CCC2(CC1)CN(CCO)c1ccccc12 [CBK022627] | 105 | 
COc1ccccc1N1CCN(C2CCN(S(=O)(=O)c3ccc(NC(C)=O)cc3)CC2)CC1 [CBK264688] | 93.7 | 
CN(C)c1ncc(-c2ccc(O)cc2)cc1C(=O)NCc1ccc(F)cc1 [CBK106396] | 91.5 | 
O=C(CN1C(=O)c2ccc([N+](=O)[O-])cc2C1=O)Nc1cccc2c1C(=O)N(c1ccccc1)C2=O [CBK265576] | 84.7 | 
c1ccc(C(Oc2nccnc2-c2ccc3c(c2)OCO3)c2ccccc2)cc1 [CBK106707] | 103 | 
O=C1CC(c2cc(Br)ccc2F)c2scc(-c3ccccc3F)c2N1 (centres unmarked) [CBK294440] | 86.4 | 
CC(=O)Nc1ccc(NC(=O)c2ccc(-c3ccc([N+](=O)[O-])cc3)o2)cc1 [CBK266220] | 99.8 | 
O=C(c1cccnc1)C1CCN(C(=O)c2cc(F)cc(F)c2)CC1 [CBK283746] | 102 | 
CC(CC(=O)N1CCCC(c2cc3cccnc3[nH]2)C1)n1cccn1 (centres unmarked) [CBK284996] | 86.2 | 
CNC(=O)c1nc(NC)oc1C [CBK059214] | 94.4 | 
FC(F)(F)Oc1ccc(-c2cc(Nc3ccc(N4CCOCC4)cc3)ncn2)cc1 [CBK090934] | 88.9 | 
O=C1CC(c2ccccc2)c2c(n3ncnc3[nH]c2=O)N1 (centres unmarked) [CBK287912] | 89.4 | 
CC1CCN(C(=O)CSc2ccc3nnc(-c4ccccc4)n3n2)CC1 [CBK287512] | 77.9 | 
CN(C)CCN(C)c1cc(-c2cccc(-c3ccccc3)c2)ncn1 [CBK037763] | 99.4 | 
Cc1noc(C)c1CN1CCC(Oc2ccccc2)CC1 [CBK305811] | 89.6 | 
CC1CCCN(Cc2c(C3CCNCC3)[nH]c3ncccc23)C1 (centres unmarked) [CBK285078] | 78.5 | 
COc1ccc(S(=O)(=O)Nc2ccccc2C(=O)O)cc1C(=O)O [CBK264084] | 99.9 | 
O=C(CN1C(=O)CCC1=O)Nc1nnc(-c2ccc3c(c2)CCCC3)o1 [CBK287427] | 80.2 | 
COc1ccc2sc(C)nc2c1 [CBK028488] | 101 | 
O=C(Nc1ccccc1Cl)N1CCCCC1CO (centres unmarked) [CBK156180] | 91.9 | 
Cc1ccc2cc(CNc3ccc4[nH]ncc4c3)c(=O)[nH]c2c1 [CBK281935] | 86.1 | 

SMILES | viability at 28.5 h, 10 µM [%] | viability at 28.5 h, 10 µM (bulk resorufin, single well) [%]
Cc1cccc2cc3c(nc12)OCCN(C)C3 [CBK285192] | 89.1 | 
CN1C(c2ccccc2)=NO[C@]1(C)c1ccccc1 [CBK027170] | 90 | 
O=S(=O)(c1ccccc1)c1nc(-c2ccco2)oc1NCc1cccnc1 [CBK287610] | 69.5 | 
CCC(=O)N1CCC2(CCCC[C@H]3CN(C(C)=O)CC[C@H]3NC(=O)CNC2=O)CC1 [CBK292147] | 96.6 | 
O=C(Cn1c2ccccc2c2ccccc21)Sc1nc2ccccc2[nH]1 [CBK263788] | 103 | 
COc1ccccc1N1C(=O)NC(=O)/C(=C/NCCCO)C1=O [CBK261618] |  | 87.8
O=C1Nc2c(cnn2-c2ccc(F)cc2)C2=NCCN12 [CBK284351] | 104 | 
c1cncc(COc2cncc(OC3CCNC3)n2)c1 (centres unmarked) [CBK077419T] | 94.3 | 
C[C@@H](c1ccccc1)n1c(=O)[nH]c2ncc(-c3cccc4cccnc34)nc21 [CBK064199] | 92 | 
Cc1ccc(C(CCO)Nc2ncnc3c2c(C)nn3C)cc1 (centres unmarked) [CBK307387] | 82.1 | 
COc1ccc(Cc2c(C)nc3c(C(=O)NCC4CCCO4)cnn3c2C)cc1 (centres unmarked) [CBK162183] | 88.5 | 
O=C(Cn1cccc(C(=O)NCc2ccccc2)c1=O)Nc1cc(F)ccc1N1CCCC1 [CBK286041] | 101 | 
CN1CCN(C(=O)c2ccc(-c3cnc(OCC4CCN(C(=O)OC(C)(C)C)CC4)nc3)cn2)CC1 [CBK170021] | 93.5 | 
Cn1c(N2CCC(C(=O)NCC3CC3)CC2)nc2ccccc21 [CBK283957] | 91.6 | 
Cc1ccc(C2=NN(C(=O)CNc3cc(F)cc(F)c3)C(c3ccco3)C2)cc1 (centres unmarked) [CBK297922] | 94.2 | 
Cc1ccc(C(=O)COc2ccc(/C=C(\C#N)c3nc(-c4ccc5c(c4)OCO5)cs3)cc2)cc1 [CBK266778] | 101 | 
CCSc1cc(Nc2nc(Cl)cc(SCC)n2)nc(N)n1 [CBK005164] | 92.6 | 
O=C(COC(=O)c1ccc(Cl)c(Cl)c1)c1ccc(Oc2ccc([N+](=O)[O-])cc2)cc1 [CBK264821] | 117 | 
Cc1cccc(-c2ccc(CC3(C(=O)NC(C)C)CCN(C(=O)C(C)C)CC3)cc2)c1 [CBK285756] | 99.8 | 
CC(=O)N1N=C(c2ccc3c(c2)OCO3)CC1c1ccc(C(=O)O)cc1 (centres unmarked) [CBK286547] | 95.4 | 
CN(C(=O)C1CCN(S(=O)(=O)c2cn(C)cn2)CC1)C(c1ccc(F)cc1)c1ccccn1 (centres unmarked) [CBK060229] | 83.8 | 

SMILES | viability at 28.5 h, 10 µM [%] | viability at 28.5 h, 10 µM (bulk resorufin, single well) [%]
Cc1ccc2[nH]c(-c3ccccc3NC(=O)CCCC(=O)O)nc2c1 [CBK295154] | 86 | 
COc1ccc([C@@H]2CCN(C(=O)c3cc(F)cc(F)c3)C[C@H]2O)cc1 [CBK283757] | 97 | 
COc1cc(/C=N/NC(=O)c2ccc([N+](=O)[O-])cc2)ccc1OC(C)=O [CBK261348] | 112 | 
CCNC(=O)c1ccc(-c2ccc(OC(F)(F)F)cc2)nc1 [CBK156230] | 110 | 
COc1cc(OC)cc(C(=O)N(CCC#N)Cc2ccco2)c1 [CBK305133] | 96.3 | 
COc1ccccc1C1CCC(NCCCC(=O)c2ccc(F)cc2)CC1 (centres unmarked) [CBK015965C] | 105 | 
Cc1cc(-c2nn3c(-c4ccccc4)nnc3s2)c2ccccc2n1 [CBK267187] | 101 | 
COc1cc(/C=N/n2c(S)nnc2C(F)(F)F)cc(Br)c1O [CBK265321] | 74.2 | 
CC(C)c1ccc(NC(=O)NC(=O)C2CCN(CCOc3ccc4ccccc4c3)CC2)c(C(C)C)c1 [CBK034883] | 96 | 
CCC(=O)Oc1ccc(/N=C2/NC(C)(C)O2)cc1 [CBK010922] | 87.6 | 
O=C(NCCCN1CCOCC1)c1cnc(-c2ccccc2)c(-c2ccncc2)c1 [CBK036664] | 106 | 
COc1cccc([C@H]2CN(C(=O)c3ccccc3)[C@@H]3CCN(Cc4ccccc4F)C[C@H]23)c1 [CBK285608] | 97.6 | 
O=C(O)CCC(=O)Nc1cccc(NC(=O)c2ccc(Br)cc2)c1 [CBK300180] | 84.6 | 
CCOC(=O)C1(Cc2cc(-c3ccccc3)no2)CCNCC1 [CBK284924] | 111 | 
Cc1[nH]c2cccc(C(=O)N3CCOC(C)(C(=O)NC4CCCC4)C3)c2c1C (centres unmarked) [CBK285800] | 87.3 | 
O=C(Cc1ccccc1)Nc1nc(OCC(F)(F)F)cnc1-c1ccsc1 [CBK145298] | 102 | 
N=C1NC(=O)/C(=C/c2ccc(O)c(Cl)c2)S1 [CBK100992] | 109 | 
Cc1cc(C(=O)Nc2ccc(-c3nc4ccccc4s3)c(O)c2)ccc1[N+](=O)[O-] [CBK262820] | 92.6 | 
Cc1nc(C)c(CC(=O)NC(c2ccncc2)c2cccs2)s1 (centres unmarked) [CBK281439] | 96.6 | 
CN(C)CCn1nc(-c2cccc(-n3cccc3)c2)oc1=O [CBK284002] | 94.2 | 
